Measured values published in EP4792822A1, “USE OF PEPTIDE AMIDE COMPOUND IN PREPARATION OF DRUG FOR […] AND VOMITING” (Haisco Pharmaceutical Group Co., Ltd., priority 2023, dated 2025).

System: tumour subjects planned to receive highly emetogenic chemotherapy for the first time
Experiment: Example 4: active-controlled dose-finding study of compound 1 injection for the prevention of chemotherapy-induced nausea and vomiting (CINV)
Type: in vivo, patients
Protocol: Study period: Treatment duration: Within 120 h after the first administration of highly emetogenic chemotherapeutic agents; Follow-up duration: Day 10 ± 1 after the first administration of highly emetogenic chemotherapeutic agents.
Protocol: This study was a multicentre, randomised, double-blind, active-controlled study. About 180 tumour subjects planned to receive highly emetogenic chemotherapy for the first time were randomised in a 1 : 1 : 1 ratio to three groups, with 60 subjects per group. Pre-chemotherapy study drug administration was completed 30 ± 10 min before the start of administration of the highly emetogenic chemotherapeutic agents. The dosing regimen was as follows: administration was performed in the following order: • 1) Compound 1 (placebo)/compound 1: A single dose was administered 30 ± 10 min before the start of administration of highly emetogenic chemotherapeutic agents, via intravenous bolus injection, with an intravenous bolus injection time of not less than 30 s. • 2) Dolasetron mesylate injection/dolasetron mesylate injection matching placebo: After the administration of compound 1/compound 1 (placebo), 5 ml (100 mg) of dolasetron mesylate injection/matching placebo was administered via intravenous bolus injection without dilution, and the infusion line was flushed with normal saline before and after administration. […]

CC(=O)N1CC2(CCN(C(=O)[C@@H](CCCCN)NC(=O)[C@@H](CC(C)C)NC(=O)[C@@H](Cc3ccccc3)NC(=O)[C@H](N)Cc3ccccc3)CC2)C1 [Compound 1, (2R)-N-[(1R)-1-(2-acetyl-2,7-diazaspiro[3.5]nonane-7-carbonyl)-5-amino-pentyl]-2-[[(2R)-2-[[(2R)-2-amino-3-phenyl-propionyl]amino]-3-phenylpropionyl]amino]-4-methyl-pentanamide]
overall safety (Example 4): good overall safety | effect on CINV (Example 4, with dolasetron/aprepitant/dexamethasone background regimens): preventive and/or ameliorating effect on CINV
